# Structures can show the parent of a compound that is named as a salt.
row,Compound,melting point [°C]
1,"CCOC(=O)c1ccc(-c2ccc(OC)c(-c3cccc([N+](=O)[O-])c3)c2)cc1C [Example 15, 4′-Methoxy-3-methyl-3′-(3-nitrophenyl)-[1,1′-biphenyl]-4-carboxylic acid, ethyl ester]",88 to 90
2,"COc1ccc(-c2ccncc2)cc1-c1ccc2nonc2c1 [Example 5, 4-[4-Methoxy-3-(5-benzofurazanyl)phenyl]pyridine]",187 to 192
3,"COc1ccc(-c2ccncc2)cc1-c1ccc(F)c(Cl)c1 (as salt: hydrochloride) [Example 11, 4-[2-(Methoxy)-3′-(chloro)4′-(fluoro)biphenyl-5-yl]pyridine]",115
4,"COc1ccc(-c2cccc(C(=O)O)c2)cc1-c1cccc([N+](=O)[O-])c1 [Example 19, 4′-Methoxy-3′-(3-nitrophenyl)-[1,1′-biphenyl]-3-carboxylic acid]",223 to 228
5,"CCOC(=O)c1ccc(-c2ccc(OC)c(-c3ccc4nonc4c3)c2)cc1 [Example 16, 3′-(5-Benzofurazanyl)-4′-methoxy-[1,1′-biphenyl]-4-carboxylic acid, ethyl ester]",166 to 168
6,"COc1ccc(-c2ccc(C(=O)O)cc2)cc1-c1ccc2nonc2c1 [Example 21, 3′-(5-Benzofurazanyl)-4′-methoxy-[1,1′-biphenyl]-4-carboxylic acid]",> 300
7,"COc1ccc(-c2ccc(C(=O)O)c(C)c2)cc1-c1cccc([N+](=O)[O-])c1 [Example 20, 4′-Methoxy-3-methyl-3′-(3-nitrophenyl)-[1,1′-biphenyl]-4-carboxylic acid]",278 to 281
8,"COc1ccc(-c2ccc(C(N)=O)cc2)cc1-c1cccc([N+](=O)[O-])c1 [Example 24, 4′-Methoxy-3′-(3-nitrophenyl)-[1,1′-biphenyl]-4-carboxamide]",201 to 205
9,"COc1ccc(-c2ccncc2)cc1-c1cccc(Oc2ccccc2)c1 (as salt: hydrochloride) [Example 9, 4-[2-(Methoxy)-3′-(phenoxy)biphenyl-5-yl]pyridine]",184 to 204
10,"COc1ccc(-c2ccncc2)cc1-c1ccc(Oc2ccccc2)cc1 (as salt: hydrochloride) [Example 10, 4-[2-(Methoxy)4′-(phenoxy)biphenyl-5-yl]pyridine]",173 to 218
11,"CCOC(=O)c1cccc(-c2ccc(OC)c(-c3cccc([N+](=O)[O-])c3)c2)c1 [Example 14, 4′-Methoxy-3′-(3-nitrophenyl)-[1,1′-biphenyl]-3-carboxylic acid, ethyl ester]",87 to 89
12,"COc1ccc(-c2ccc(C(N)=O)c(C)c2)cc1-c1cccc([N+](=O)[O-])c1 [Example 26, 4′-Methoxy-3-methyl-3′-(3-nitrophenyl)-[1,1′-biphenyl]-4-carboxamide]",179 to 184
13,"COc1ccc(-c2ccc(C(=O)OCC(C)(C)C)cc2)cc1-c1ccc2nonc2c1 [Example 17, 3′-(5-Benzofurazanyl)-4′-methoxy-[1,1′-biphenyl]-4-carboxylic acid, 2,2-dimethylpropyl ester]",131 to 136
14,"COc1ccc(-c2ccc3nccn3c2)cc1-c1ccc2nonc2c1 [Example 28, 6-[4-Methoxy-3-(5-benzofurazanyl)phenyl]imidazo[1,2-a]pyridine]",190 to 196
15,"COc1ccc(-c2cccc(C(N)=O)c2)cc1-c1cccc([N+](=O)[O-])c1 [Example 25, 4′-Methoxy-3′-(3-nitrophenyl)-[1,1′-biphenyl]-3-carboxamide]",118 to 120
16,"CNC(=O)c1ccc(-c2ccc(OC)c(-c3cccc([N+](=O)[O-])c3)c2)cc1 [Example 27, N-Methyl-4′-methoxy-3′-(3-nitrophenyl)-[1,1′-biphenyl]-4-carboxamide]",171 to 172
17,"COc1ccc(-c2ccc(C(=O)O)cc2)cc1-c1cccc(C#N)c1 [Example 23, 4′-Methoxy-3′-(3-cyanophenyl)-[1,1′-biphenyl]-4-carboxylic acid]",280 to 285
18,"COc1ccc(-c2ccncc2)cc1-c1cccc(Cl)c1 (as salt: hydrochloride) [Example 7, 4-[2-(Methoxy)-3′-(chloro)biphenyl-5-yl]pyridine]",156 to 210
19,"COc1ccc(-c2ccc(C(=O)O)cc2)cc1-c1cccc(Cl)c1 [Example 22, 4′-Methoxy-3′-(3-chlorophenyl)-[1,1′-biphenyl]-4-carboxylic acid]",250 to 252
20,"CCOC(=O)c1ccc(-c2ccc(OC)c(-c3cccc([N+](=O)[O-])c3)c2)cc1 [Example 13, 4′-Methoxy-3′-(3-nitrophenyl)-[1,1′-biphenyl]-4-carboxylic acid, ethyl ester]",106 to 108

# Reference: US6410547B1, “Phenylpyridine derivatives useful as phosphodiesterase inhibitors” (Novartis AG, priority 1996, dated 2002)
